One data set relates to female SJL/J mice, EAE. Description: experimental allergic encephalomyelitis (EAE), PLP 139-151, Example 6. The following applies: 5 mg/kg daily by oral gavage, through day 26. In kind it is in vivo, mouse. The text has this: Treatment of autoimmune neurodegeneration. Three compounds, 17β-aminoandrost-5-ene-3β-ol, 17β-dimethylaminoandrost-5-ene-3β-ol and 17β-methylaminoandrost-5-ene-3β-ol were characterized for their capacity to ameliorate experimental allergic encephalomyelitis (EAE) in mice. This demyelinating condition is extensively used as a model for multiple sclerosis in humans and for testing of new therapies for treating multiple sclerosis, e.g., B. F. Bebo Jr. et al., J. Neurosci. Res. 52:420-426 1998; R. R. Voskuhl et al., Neuroscientist, 7:258-270 2001; H. Offner et al., J. Neuroimmunol., 130:128-139 2002.
In this protocol, the compounds were administered to female SJL/J mice by oral gavage at the onset of disease symptoms. An antigen was used to initiate the EAE condition in the mice. […] Immunization with this peptide antigen initiates an autoimmune Th1 mediated demyelinating disease of the central nervous system. The antigen was prepared by solid phase synthesis and purified by high-performance liquid chromatography. […] The immunization protocol was subcutaneous injection over four sites on the hind flank on day 0. After immunization. the mice were assessed daily for clinical signs of EAE using the following scale: 0=no clinical signs or symptoms; 1=limp tail; 2=mild hind limb weakness and limp tail; 3=moderate hind limb weakness and limp tail or mild ataxia; 4=severe hind limb weakness and mild forearm weakness with moderate ataxia; 5=paraplegia with no more than moderate forelimb weakness; 6=paraplegia with severe forelimb weakness or severe ataxia or moribund condition.
Mice in the vehicle control group began to show observable symptoms of EAE at about 10-11 days after immunization with the PLP antigen, which is typical for the EAE disease model. The animals were dosed daily with 17β-aminoandrost-5-ene-3β-ol, 17β-dimethylaminoandrost-5-ene-3β-ol or 17β-methylaminoandrost-5-ene-3β-ol by oral gavage beginning at day 1, which was 1 day after immunization.

The test system of data set [1] is CD1 male mice, carrageenan-λ induced pleurisy. Description: carrageenan-λ induced lung (pleural cavity) inflammation in mice. It counts as in vivo, mouse. The following applies: 40 mg/kg by oral gavage, about 0.5 mg/mouse.
In data set [2] the test system is human peripheral blood mononuclear cells (PBMC). As to the kind of experiment: human mixed lymphocyte reaction (MLR). In kind it is cell-based. The note with it: 6 days. The procedure:
Human mixed lymphocyte reaction (MLR). The capacity of 3β,16α-dihydroxy-17-oxoandrostane, 3β,17β-dihydroxy-16-oxoandrostane, 17α-ethynylandrost-5-ene-3β,7β,17β-triol, and 17β-aminoandrost-5-ene-3β-ol to affect antigen specific stimulation in which human T lymphocytes respond to a specific foreign antigen (major histocompatibility complex).
Blood samples were obtained from 3 (2 males, […]) fasting, healthy human volunteers of 23-31 years old. […] The subjects were bled between […] to limit possible fluctuations in the circulating levels of hormones or cytokines that could have influenced the in vitro responses of their lymphocytes. Peripheral blood mononuclear cells (PBMC) were isolated by centrifugation on Ficoll-Hypaque (density 1.077, Biochrom AG, Berlin, Germany) gradients and resuspended in culture medium (RPMI 1640 supplemented with 2 mM L-glutamine, penicillin (100 U/mL) and streptomycin ([…]) (Invitrogen s.rl., Milan, Italy). Autologous (responder) inactivated plasma was used at 10%. Five hundred thousand responder PBMC (PBMCr) and 500,000 allogeneic irradiated (30 Gy) stimulator PBMC (PBMCs) were mixed at a ratio of 1:1 in 200 μL medium and cultured for 6 days in flat bottom 96 well plates (Nunc, Roskilde, Denmark) at a concentration of 300 nM or 30 nM for each of the 4 compounds. The compounds were dissolved in ethanol and then diluted to the desired concentration with culture medium leading to a final solution containing 0.01% of ethanol. This vehicle was used as control. Controls also included PBMCr and PBMCs cultured separately. During the last 8 hours of the culture period the PBMC were pulsed with 1 μCi/well [^3H] thymidine (Amersham, Milan, Italy). The cells were then harvested and radioactivity incorporation measured with a beta cell counter. The mean cpm of quadruplicate wells was calculated. Proliferation of T cells was expressed as a stimulation index: SI=cpm (PMBCs xPBMCr)/cpm (PBMCr)+cpm (PBMCs). Statistical analysis was performed using the Student's t test. The cpm obtained from quadruplicate of each test compound were compared to proliferative responses obtained in control PBMCr and PBMCs cultured in the presence of the vehicle. Differences were considered significant at p<0.05.

The nature of data set [3]: metabolic stability in liver microsomes, species not stated. In kind it is in vitro ADME. The note with it: compared with androst-5-ene-3β,17β-diol reference compound. The procedure: (§1) The protocol was performed as follows. […] (2) Set up samples as follows. […] (4) The internal standard/acetonitrile solution.
The next data set deals with NF-κB. As to the kind of experiment: NF-κB-bla THP-1 β-lactamase reporter assay. In kind it is cell-based, human. The note with it: 50% of the maximum inhibition the compound can induce, averages of 2-4 assays. (In general: A reporter such as luciferase makes a cellular process visible.)
In the next data set the test system is MG-63 cells. As to the kind of experiment: reversal of glucocorticoid effects in MG-63 osteosarcoma cells. In kind it is cell-based, human.
Data set [4] is described as follows: metabolic stability in liver microsomes: mouse. The note with it: 10 min. Here is the method:
as §1

The nature of data set [5]: metabolic stability in liver microsomes: human. Here is the method:
as §1
A general note: Liver microsomes are a subcellular fraction often used to study metabolism.

A further data set concerns Balb/c mice, ear burn. As to the kind of experiment: thermal injury model using mouse ear tissue. It counts as in vivo. The following applies: injection in propylene glycol after burn. Here is the method: A thermal injury model using mouse ear tissue was used to characterize compounds for their capacity to treat inflammation associated with thermal trauma. […] Groups of Balb/c mice, approximately nine weeks old were given an identifying mark and then divided into control and treated subgroups. The thickness of the ear to be immersed in hot water was recorded, and then the entire ear of the anesthetized mouse was dipped into 52° C. water for 24 seconds. Each mouse was returned to its cage after an injection of either the propylene glycol vehicle (control) or 100 mg of compound in propylene glycol. Ear swelling changes were monitored on individual mice at pre-burn, and at various times after thermal injury. Ear swelling changes were monitored on individual mice at pre-injury and at 1, 3, 6, 9, 12, 18, 24 and 48 hours after thermal injury. Animals were treated with 100 mg of dehydroepiandrosterone (DHEA) dissolved in propylene glycol.

Data set [6] relates to NF-κB in spleen cells of ICR mice. Description: activated NF-κB in spleen cell nuclei after LPS, Example 8. The note with it: about 40 mg/kg i.p. 24 h before and 1 h after LPS; spleens 1.5 hours after LPS. In kind it is in vivo, mouse. The procedure:
The capacity of selected compounds to treat LPS induced shock/inflammation in mice was examined by a protocol similar to the protocol described above. Five groups of three ICR mice weighing about 30 g were each treated by intraperitoneal injection with 120 μL vehicle (30% sulfobutylether-cyclodextrin in water), androst-5-ene-3α,7β,16α,17β-tetrol in vehicle, androst-5-ene-3β,4β,16α,17β-tetrol in vehicle or 4β-acetoxyandrost-5-ene-3β,16α,17β-triol in vehicle. All drug and vehicle formulations were solutions, not suspensions. The sulfobutylether-cyclodextrin was obtained commercially (Captisol™, www.cyclexinc.com). There were two vehicle control groups one group received vehicle alone and the other received vehicle plus LPS. […] Drug was administered at about 40 mg/kg (1.2 mg drug/animal for each administration of the drugs). Spleens were harvested from the animals at 1.5 hours after injection of LPS and spleen cells were lysed and assayed for activated NF-κB by isolating nuclei from spleen cells and measuring NF-κB from the lysed nuclei. […] The level of activated NF-κB in spleen cells from the animals that were treated with vehicle and no LPS, was essentially the same as the activated NF-κB in spleen cells from drug treated animals.

Structures are written as SMILES. Like-named read-outs stand apart in the source and are kept apart here.

Regarding `C[C@]12CC[C@H]3[C@@H](CC=C4C[C@@H](O)CC[C@@]43C)[C@@H]1CC[C@@H]2N` [17β-aminoandrost-5-ene-3β-ol], in the data set on female SJL/J mice, EAE, the “activity on clinical severity of EAE symptoms” value (“activity on clinical severity” below) was “active”. Moreover, the “anti-inflammation activity versus vehicle controls” value in [1] is on record as “statistically significant anti-inflammation activity”. Also, in data set [2] (300 nM, p<0.05), the “immune suppression in the MLR” value is “moderately immune suppressive”.

For the molecule `C[C@]12CC[C@H]3[C@@H](CC=C4C[C@@H](O)CC[C@@]43C)[C@@H]1C[C@@H](O)[C@@H]2O` [androst-5-ene-3β,16α,17β-triol], the “metabolism by microsomes” value in data set [3] is listed as “metabolized by microsomes at a rate similar to the androst-5-ene-3β,17β-diol reference compound”.

For `C[C@]12CC[C@H]3[C@@H]([C@H](O)C=C4C[C@@H](O)CC[C@@]43C)[C@@H]1C[C@@H](O)[C@@H]2O` [androst-5-ene-3β,7α,16α,17β-tetrol], in the data set on NF-κB (Homo sapiens, THP-1, read-out: IC50 for inhibition of NF-κB activation, after LPS stimulation), the IC50 – broadly, the concentration at which inhibition is half-maximal – is above 10 µM. In addition, the “osteoprotegerin levels in the presence of 30 nM dexamethasone” value in the data set with MG-63 cells (10 nM compound) is “near normal osteoprotegerin levels”. For the same molecule, in data set [4], the “parent remaining mouse microsomes” value was 100% (10 min). Further, the “parent remaining human microsomes” value in data set [5] (10 min) is given as 100% (10 min).

For the molecule `C[C@]12CC[C@H](O)CC1=CC[C@@H]1[C@@H]2CC[C@]2(C)C(=O)[C@H](Br)C[C@@H]12` [16α-bromodehydroepiandrosterone], the “protection against progressive ischemia after thermal injury to the ear” value (“protection against progressive ischemia” for short) with Balb/c mice, ear burn is on record as “protected treated animals against much of the ischemic consequences”.

With `C[C@]12CC[C@H]3[C@@H](CC=C4[C@@H](O)[C@@H](O)CC[C@@]43C)[C@@H]1C[C@@H](O)[C@@H]2O` [3β,4β,16α,17β-tetrahydroxyandrost-5-ene], the “decrease of NF-κB activation compared to LPS+vehicle control group” value in data set [6] is listed as “about 50%”.

For the molecule `CN[C@H]1CC[C@H]2[C@@H]3CC=C4C[C@@H](O)CC[C@]4(C)[C@H]3CC[C@]12C` [17β-methylaminoandrost-5-ene-3β-ol], the “activity on clinical severity” value with female SJL/J mice, EAE was “active”.

In the case of `C[C@]12CC[C@H](O)CC1=CC[C@@H]1[C@@H]2CC[C@]2(C)C(=O)[C@H](Cl)C[C@@H]12` [16α-chlorodehydroepiandrosterone], in the data set with Balb/c mice, ear burn, the “protection against progressive ischemia” value was “only slightly protective”.

As to `CC(=O)O[C@@H]1C2=CC[C@H]3[C@@H]4C[C@@H](O)[C@H](O)[C@@]4(C)CC[C@@H]3[C@@]2(C)CC[C@@H]1O` [4β-acetoxy-3β,16α,17β-trihydroxyandrost-5-ene], the “decrease of NF-κB activation compared to LPS+vehicle control group” value in [6] was “about 50%”.

Consider `C[C@]12CC[C@H](O)CC1=CC[C@@H]1[C@@H]2CC[C@]2(C)C(=O)[C@H](O)C[C@@H]12` [16α-hydroxydehydroepiandrosterone], for which, in the data set on Balb/c mice, ear burn, the “protection against progressive ischemia” value is given as “less protective”.

In the case of `CN(C)[C@H]1CC[C@H]2[C@@H]3CC=C4C[C@@H](O)CC[C@]4(C)[C@H]3CC[C@]12C` [17β-dimethylaminoandrost-5-ene-3β-ol], the “activity on clinical severity” value with female SJL/J mice, EAE is “active”.

Take `CC12CCC(O)CC1=CC(=O)C1C2CCC2(C)C1CCC2(C)O` (stereo not drawn) [3β,17β-dihydroxy-7-oxo-17α-methylandrost-5-ene]: the IC50 on NF-κB (after LPS stimulation, read-out: IC50 for inhibition of NF-κB activation) is above 10 µM. Further, the “osteoprotegerin levels in the presence of 30 nM dexamethasone” value in the data set on MG-63 cells (100 nM compound) is “increased osteoprotegerin levels”.

With `C[C@]12CC[C@H]3[C@@H](CC=C4C[C@@H](O)CC[C@@]43C)[C@@H]1CC[C@@H]2O` [androst-5-ene-3β,17β-diol], the “parent remaining mouse microsomes” value in data set [4] is 25% (10 min). Further, in the data set with Balb/c mice, ear burn, the “protection against progressive ischemia” value is listed as “protected treated animals against much of the ischemic consequences”. Moreover, the “parent remaining human microsomes” value in [5] (10 min) is given as 39% (10 min); in [5] (90 min), 30% (90 min).

Take `C[C@]12CC[C@H]3[C@@H]([C@H](O)C=C4C[C@H](O)CC[C@@]43C)[C@@H]1C[C@@H](O)[C@@H]2O` [androst-5-ene-3α,7α,16α,17β-tetrol]: in data set [4], the “parent remaining mouse microsomes” value is listed as 100% (10 min). In addition, the “parent remaining human microsomes” value in [5] (10 min) was 100% (10 min).

Turning to `C[C@]12CC[C@H]3[C@@H](CCC4C[C@@H](O)CC[C@@]43C)[C@@H]1CC(=O)[C@@H]2O` (stereo partly drawn) [3β,17β-dihydroxy-16-oxoandrostane], the “immune suppression in the MLR” value in [2] (either 300 nM or 30 nM, p>0.05) is given as “not appreciably immune suppressive”.
